Assay [1] has as its target T1, DDR1 (Homo sapiens, UniProt Q08345). The assay can be described thus: DDR1 cell based assay (PathHunter U2OS DDR1 assay). Further details: host or cells: U2OS-DDR1. Conditions: U2OS-DDR1 cells, bovine Type II Collagen 20 μg/ml, luminescence. The protocol:
The inhibition of DDR1 receptor activation by compounds was evaluated by PathHunter® U2OS DDR1 assay (Eurofins DiscoverX), according to the manufacturer's instructions. Briefly, U2OS-DDR1 cells were seeded in white 384-well plates at a density of 5000 cells/well and incubated for 2 hours at 37° C. and 5% CO2. Cells were then treated with compounds at different concentrations and incubated for 30 minutes, before stimulation with bovine Type II Collagen 20 μg/ml and incubation overnight at 37° C. and 5% CO2. PathHunter Detection Reagents were prepared according to the protocol provided by DiscoverX and 20 μl/well of this mix were added to each well. After incubating the plates for 1 hour at room temperature in the dark, luminescence signal was acquired with a plate reader. Raw data were normalized to vehicle control (0% for normalization) and positive control (100% for normalization; cells treated with 20 μg/ml collagen II) and IC50 parameters were calculated in GraphPad Prism 8.0 software, using sigmoidal dose-response curve fitting with variable slope.

For assay [2], the target named is T1, DDR1. The assay can be described thus: DDR1 binding assay (LanthaScreen Europium Kinase Binding assay). Also noted: purchased Carna Biosciences. The following applies: 5 nM DDR1, 20 nM Kinase Tracer 178, 1 hour at room temperature; Ki from IC50 by Cheng-Prusoff. The protocol: (§1) DDR1 and DDR2 binding assays were performed using Life Technologies LanthaScreen™ Europium Kinase Binding assay. The compounds were incubated with 5 nM DDR1 (Carna Biosciences) or 5 nM DDR2 (Life Technologies) for 1 hour at room temperature in white 384-well OptiPlate (PerkinElmer), containing 20 nM or 10 nM Kinase Tracer 178 respectively and 2 nM Europium labelled anti-GST antibody (Life Technologies) in assay buffer (50 mM HEPES pH 7.5, 10 mM MgCl2, 1 mM EGTA and 0.01% BRIJ35).
(§2) The ratio of fluorescence emission 665 nm/615 nm after excitation at 340 nm was obtained using the Tecan Spark 20M plate reader. IC50 values were determined in GraphPad Prism 7.0 software, using 4 parameter model: log(inhibitor) vs. response. IC50 values were converted in Ki using the Cheng-Prusoff equation (Ki=IC50/(1+[Tracer]/Kd).

Assay [3] has as its target T2, DDR2 (Homo sapiens, UniProt Q16832).
T2 sequence (Q16832 22-855): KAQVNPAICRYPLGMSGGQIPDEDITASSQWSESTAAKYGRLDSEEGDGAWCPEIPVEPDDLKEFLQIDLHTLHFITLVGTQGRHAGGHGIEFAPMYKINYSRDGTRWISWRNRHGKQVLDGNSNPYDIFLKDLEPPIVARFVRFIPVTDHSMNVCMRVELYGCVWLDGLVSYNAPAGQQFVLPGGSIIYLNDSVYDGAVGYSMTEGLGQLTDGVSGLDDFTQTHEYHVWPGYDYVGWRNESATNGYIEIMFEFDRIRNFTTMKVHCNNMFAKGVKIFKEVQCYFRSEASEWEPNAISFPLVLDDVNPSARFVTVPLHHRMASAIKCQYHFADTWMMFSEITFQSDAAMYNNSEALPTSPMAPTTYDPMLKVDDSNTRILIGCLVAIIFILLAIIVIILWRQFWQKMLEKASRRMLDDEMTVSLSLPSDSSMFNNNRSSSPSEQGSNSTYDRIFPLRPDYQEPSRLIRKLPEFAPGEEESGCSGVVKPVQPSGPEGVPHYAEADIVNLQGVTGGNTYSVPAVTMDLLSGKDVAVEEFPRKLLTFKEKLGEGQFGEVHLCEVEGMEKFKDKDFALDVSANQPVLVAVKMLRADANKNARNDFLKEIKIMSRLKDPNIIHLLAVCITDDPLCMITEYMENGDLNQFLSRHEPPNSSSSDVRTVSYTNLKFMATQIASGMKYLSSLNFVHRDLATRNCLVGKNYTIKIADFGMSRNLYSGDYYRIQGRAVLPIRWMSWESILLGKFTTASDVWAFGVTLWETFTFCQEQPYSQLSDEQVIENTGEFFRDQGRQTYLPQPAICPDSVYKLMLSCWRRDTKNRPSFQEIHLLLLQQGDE
The assay can be described thus: DDR2 cell based assay (phospho-ELISA in HEK293T-DDR2 recombinant cells). Further details: expressed in transfected cells; host or cells: HEK293T-DDR2 recombinant cells. Conditions: bovine Type II Collagen 50 μg/ml. The protocol:
The inhibition of DDR2 phosphorylation by compounds was evaluated in HEK293T-DDR2 recombinant cells by phospho-ELISA assay. Briefly, HEK293T-DDR2 cells were seeded in poly-D-lysine-coated 24-well plates at a density of 250.000 cells/well and incubated for 1.5 hours at 37° C. and 5% CO2 in DMEM+10% FBS. After that, the medium was changed to serum-free DMEM and cells were incubated for 3 hours. Then. test compounds were added at different concentrations 30 minutes before stimulation with bovine Type II Collagen at 50 μg/ml for further 3 hours. For DDR2 phospho-ELISA assay (DuoSet IC Human Phospho-DDR2; R&D Systems), protein extracts were obtained by adding 60 μl/well of lysis buffer prepared according to the manufacturer's instructions. Protein concentration in the samples was determined by BCA assay and the levels of phospho-DDR2 were determined following R&D Systems indications. Raw data were normalized to maximal inhibition control (0% for normalization) and positive control (100% for normalization; cells treated with […] collagen II) and IC50 parameters were calculated in GraphPad Prism 8.0 software, using sigmoidal dose-response curve fitting with variable slope.

The target in assay [4] is T2, DDR2. The assay can be described thus: DDR2 binding assay (LanthaScreen Europium Kinase Binding assay). Also noted: purchased Life Technologies. Conditions: 5 nM DDR2, 10 nM Kinase Tracer 178, 1 hour at room temperature; Ki from IC50 by Cheng-Prusoff. The method, then:
as §1, §2

Counter-ions that a name gives are not always drawn. Where only a bound is given, the exact number is not on record here.

T1 sequence (Q08345 19-913): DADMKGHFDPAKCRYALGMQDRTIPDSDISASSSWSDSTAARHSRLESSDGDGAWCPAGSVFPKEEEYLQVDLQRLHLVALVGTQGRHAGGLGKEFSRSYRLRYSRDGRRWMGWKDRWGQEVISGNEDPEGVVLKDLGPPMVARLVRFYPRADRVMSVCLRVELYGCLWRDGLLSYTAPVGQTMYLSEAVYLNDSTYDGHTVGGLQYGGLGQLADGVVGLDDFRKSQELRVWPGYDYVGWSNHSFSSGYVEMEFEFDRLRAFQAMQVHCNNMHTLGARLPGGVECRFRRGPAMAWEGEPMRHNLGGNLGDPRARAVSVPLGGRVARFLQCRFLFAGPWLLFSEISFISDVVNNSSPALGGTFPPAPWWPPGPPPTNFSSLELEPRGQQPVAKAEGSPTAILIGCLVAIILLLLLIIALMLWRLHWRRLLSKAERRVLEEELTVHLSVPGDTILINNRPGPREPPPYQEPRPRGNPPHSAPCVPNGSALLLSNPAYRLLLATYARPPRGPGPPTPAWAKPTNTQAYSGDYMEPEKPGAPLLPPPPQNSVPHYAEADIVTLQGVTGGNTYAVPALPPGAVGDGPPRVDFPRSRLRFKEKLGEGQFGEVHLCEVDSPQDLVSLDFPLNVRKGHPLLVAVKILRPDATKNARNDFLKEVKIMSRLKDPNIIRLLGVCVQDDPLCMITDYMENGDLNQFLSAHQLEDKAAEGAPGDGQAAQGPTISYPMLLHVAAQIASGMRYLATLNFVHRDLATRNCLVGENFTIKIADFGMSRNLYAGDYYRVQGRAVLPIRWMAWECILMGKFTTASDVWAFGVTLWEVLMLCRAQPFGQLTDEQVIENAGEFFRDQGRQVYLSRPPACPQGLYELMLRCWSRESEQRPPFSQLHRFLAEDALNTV

As to `Cc1cn(-c2cc(NC(=O)c3ccc(C)c(CNc4cncnc4)c3)cc(C(F)(F)F)c2)cn1` [Example 20, 4-methyl-N-(3-(4-methyl-1H-imidazol-1-yl)-5-(trifluoromethyl)phenyl)-3-((pyrimidin-5-ylamino)methyl)benzamide], the IC50 against DDR1 [1] is < 10 nM; on DDR2 [3] it was 10 to 15 nM. Moreover, the Ki at DDR1 [2] and at DDR2 [4] was < 30 nM in each case.
On to `Cc1ccc(C(=O)Nc2cc(CN3CCN(C)CC3)cc(C(F)(F)F)c2)cc1CNC(=O)c1cnc2ccccn12` [Example 21, N-(2-methyl-5-((3-((4-methylpiperazin-1-yl)methyl)-5-(trifluoromethyl)phenyl)carbamoyl)benzyl)imidazo[1,2-a]pyridine-3-carboxamide], for which the Ki on DDR1 [2] and at DDR2 [4] was < 30 nM each time.
Regarding `Cc1cn(-c2cc(NC(=O)c3ccc(C)c(CNC(=O)c4cnc5ccccn45)c3)cc(C(F)(F)F)c2)cn1` [Example 22, N-(2-methyl-5-((3-(4-methyl-1H-imidazol-1-yl)-5-(trifluoromethyl)phenyl)carbamoyl)benzyl)imidazo[1,2-a]pyridine-3-carboxamide], the Ki on DDR1 [2] and on DDR2 [4] was < 30 nM in each case.
In the case of `CNC(=O)c1cc(NCc2cc(C(=O)Nc3cc(-n4cnc(C)c4)cc(C(F)(F)F)c3)ccc2C)ccn1` [Example 23, N-methyl-4-((2-methyl-5-((3-(4-methyl-1H-imidazol-1-yl)-5-(trifluoromethyl)phenyl)carbamoyl)benzyl)amino)picolinamide], the Ki on DDR1 [2] and on DDR2 [4] was < 30 nM throughout.
On to `CNC(=O)c1cc(NCc2cc(C(=O)Nc3cc(CN4CCN(C)CC4)cc(C(F)(F)F)c3)ccc2C)ccn1` [Example 24, N-methyl-4-((2-methyl-5-((3-((4-methylpiperazin-1-yl)methyl)-5-(trifluoromethyl)phenyl)carbamoyl)benzyl)amino)picolinamide], for which the Ki at DDR1 [2] and on DDR2 [4] was < 30 nM each time.
As to `Cc1cn(-c2cc(NC(=O)c3ccc(C)c(CNC(=O)c4cnc5[nH]ccc5c4)c3)cc(C(F)(F)F)c2)cn1` [Example 25, N-(2-methyl-5-((3-(4-methyl-1H-imidazol-1-yl)-5-(trifluoromethyl)phenyl)carbamoyl)benzyl)-1H-pyrrolo[2,3-b]pyridine-5-carboxamide], the Ki on DDR1 [2] and at DDR2 [4] was < 30 nM throughout.
As to `Cc1ccc(C(=O)Nc2cc(CN3CCN(C)CC3)cc(C(F)(F)F)c2)cc1CNC(=O)c1cnc2[nH]ccc2c1` [Example 26, N-(2-methyl-5-((3-((4-methylpiperazin-1-yl)methyl)-5-(trifluoromethyl)phenyl)carbamoyl)benzyl)-1H-pyrrolo[2,3-b]pyridine-5-carboxamide], the Ki at DDR1 [2] and on DDR2 [4] was < 30 nM each time.
As to `CC(C)c1ccc(C(=O)Nc2cc(CN3CCN(C)CC3)cc(C(F)(F)F)c2)cc1CNC(=O)c1cnc2[nH]ccc2c1` [Example 27, N-(2-isopropyl-5-((3-((4-methylpiperazin-1-yl)methyl)-5-(trifluoromethyl)phenyl)carbamoyl)benzyl)-1H-pyrrolo[2,3-b]pyridine-5-carboxamide], the Ki at DDR1 [2] and on DDR2 [4] was 300 to 1000 nM in each case.
As for `CCCc1ccc(C(=O)Nc2cc(CN3CCN(C)CC3)cc(C(F)(F)F)c2)cc1CNC(=O)c1cnc2ccccn12` [Example 28, N-(5-((3-((4-methylpiperazin-1-yl)methyl)-5-(trifluoromethyl)phenyl)carbamoyl)-2-propylbenzyl)imidazo[1,2-a]pyridine-3-carboxamide formate salt], the Ki on DDR1 [2] and on DDR2 [4] was 300 to 1000 nM in each case.
In the case of `CCCc1ccc(C(=O)Nc2cc(CN3CCN(C)CC3)cc(C(F)(F)F)c2)cc1CNc1cncnc1` [Example 29, N-(3-((4-methylpiperazin-1-yl)methyl)-5-(trifluoromethyl)phenyl)-4-propyl-3-((pyrimidin-5-ylamino)methyl)benzamide], the Ki was < 30 nM at DDR1 [2] and 30 to 300 nM on DDR2 [4].
The corresponding values for `CC(C)c1ccc(C(=O)Nc2cc(CN3CCN(C)CC3)cc(C(F)(F)F)c2)cc1CNc1cncnc1` [Example 30, 4-isopropyl-N-(3-((4-methylpiperazin-1-yl)methyl)-5-(trifluoromethyl)phenyl)-3-((pyrimidin-5-ylamino)methyl)benzamide] are < 30 nM and < 30 nM.
Regarding `COc1ccc(NC(=O)c2ccc(C)c(CNc3cncnc3)c2)cc1C(F)(F)F` [Example 31, N-(4-methoxy-3-(trifluoromethyl)phenyl)-4-methyl-3-((pyrimidin-5-ylamino)methyl)benzamide], the IC50 on DDR1 [1] and at DDR2 [3] was < 10 nM in each case. Moreover, the Ki on DDR1 [2] and on DDR2 [4] was < 30 nM in each case.
Consider `Cc1ccc(C(=O)Nc2cccc(C(F)(F)F)c2)cc1CNc1cncnc1` [Example 32, 4-methyl-3-((pyrimidin-5-ylamino)methyl)-N-(3-(trifluoromethyl)phenyl)benzamide], for which the IC50 against DDR1 [1] and on DDR2 [3] was < 10 nM throughout. Further, the Ki at DDR1 [2] and at DDR2 [4] was < 30 nM in each case.
Turning to `O=C(Nc1cccc(C(F)(F)F)c1)c1ccc(F)c(CNc2cnc3[nH]ccc3c2)c1` [Example 33, 3-(((1H-pyrrolo[2,3-b]pyridin-5-yl)amino)methyl)-4-fluoro-N-(3-(trifluoromethyl)phenyl)benzamide], the Ki on DDR1 [2] and at DDR2 [4] was < 30 nM each time.
With `Cc1ccc(C(=O)Nc2cccc(C(F)(F)F)c2)cc1CNc1cccnc1` [Example 34, 4-methyl-3-((pyridin-3-ylamino)methyl)-N-(3-(trifluoromethyl)phenyl)benzamide], the IC50 against DDR1 [1] and at DDR2 [3] was < 10 nM in each case. In addition, the inhibitory constant (Ki) at DDR1 [2] and at DDR2 [4] was < 30 nM in each case.
Consider `Cc1cn(-c2cc(NC(=O)c3ccc(C(F)F)c(CNc4cncnc4)c3)cc(C(F)(F)F)c2)cn1` [Example 36, 4-(difluoromethyl)-N-(3-(4-methyl-1H-imidazol-1-yl)-5-(trifluoromethyl)phenyl)-3-((pyrimidin-5-ylamino)methyl)benzamide], for which the Ki at DDR1 [2] and at DDR2 [4] was < 30 nM each time.

Source of the values: patent US20230227447A1, “BENZYLAMINE DERIVATIVES AS DDRS INHIBITORS” (CHIESI FARMACEUTICI S.P.A., priority 2020, published 2023).
